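Five compound concentrations were applied to cells in 96-well plates for 48 hours; endpoints were derived by simple linear interpolation of the resulting dose-response curve. GI50 = concentration required for 50% inhibition of growth.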 The source made the active and inactive calls. Rule as the data show it: active = GI50 up to about 1.1 µM and inactive = higher.
Assays:
Test in all cases: growth of human tumour cells (NCI), 48 h
M19-MEL = system: M19-MEL
DLD-1 = system: DLD-1
SNB-78 = system: SNB-78
HOP-18 = system: HOP-18
DMS-114 = system: DMS-114
DMS-273 = system: DMS-273
KM-20L2 = system: KM-20L2
XF498 = system: XF498
RXF 631 = system: RXF 631

Measured: GI50

c1cncc(C2c3[nH]c4ccccc4c3CCN2CCN2CCCCC2)c1 (stereo not drawn)
inactive: M19-MEL > 100 µM | DLD-1 > 100 µM | SNB-78 > 100 µM | HOP-18 > 100 µM | DMS-114 > 100 µM | DMS-273 > 100 µM | KM-20L2 > 100 µM | XF498 > 100 µM | RXF 631 > 100 µM

COC(=O)c1cc2cc(OC)c(OC)cc2cc(C(=O)OC)c1=O
inactive: M19-MEL > 100 µM | DLD-1 > 100 µM | SNB-78 > 100 µM | HOP-18 > 100 µM | DMS-114 29.6 µM | DMS-273 > 100 µM | KM-20L2 > 100 µM | XF498 > 100 µM | RXF 631 > 100 µM

Reference: ChEMBL document CHEMBL1201862, “PubChem BioAssay data set” (2004)
